45 molecules from the Biogen ADME set (Fang et al. 2023) can be followed below.

For the series the following is noted: for aqueous solubility: pH 6.8.

Values after ≈ are worked out from the molar mass of the structure shown.

Usually aqueous solubility stands for how much of the substance goes into solution per volume. Lower therefore signals a poorly soluble substance. As to `CNC(=O)CN1CCCN(C(=O)c2c(C)nn(-c3ccccc3)c2Cl)CC1`, the MDR1-MDCK efflux ratio came to 82.1; the intrinsic clearance, human liver microsomes is at most 4.74 mL/min/kg; the intrinsic clearance, rat liver microsomes turned out to be 87.7 mL/min/kg; the aqueous solubility worked out at 49.9 µg/mL (≈ 128 µM).

Consider `O=C(Nn1cnc2ccccc21)c1c2c(nc3ccccc13)CCC2`, for which the MDR1-MDCK efflux ratio is 43.2; the intrinsic clearance, human liver microsomes is at most 4.74 mL/min/kg; the intrinsic clearance, rat liver microsomes was at most 10.7 mL/min/kg; the aqueous solubility is 56.7 µg/mL (≈ 173 µM).

The molecule `Cn1cc(-c2nc(C(=O)Nc3cccnc3-n3cncn3)cs2)cn1` registered an aqueous solubility of 1.92 µg/mL (≈ 5.43 µM).

Take `CCn1ncc(CN(C)C(=O)c2ccc(-c3nc(C)cc(C)n3)cc2)c1C`: the MDR1-MDCK efflux ratio came to 4.16; the intrinsic clearance, human liver microsomes turned out to be 19.3 mL/min/kg; the intrinsic clearance, rat liver microsomes stood at 278 mL/min/kg.

For the molecule `COc1ccc(C(=O)c2ccc(Cl)cc2)c(OC)c1`, the MDR1-MDCK efflux ratio was found to be 0.522; the intrinsic clearance, human liver microsomes is 87.4 mL/min/kg; the intrinsic clearance, rat liver microsomes was 1750 mL/min/kg.

In the case of `Cc1occc1C(=O)NCC(=O)Nc1nc2cc(Cl)ccc2n1C`, the MDR1-MDCK efflux ratio is 1.31; the intrinsic clearance, human liver microsomes was 9.49 mL/min/kg; the intrinsic clearance, rat liver microsomes is 195 mL/min/kg; the aqueous solubility came to 27.2 µg/mL (≈ 78.4 µM).

Turning to `Cc1ccncc1-c1ccc(-c2ccn[nH]2)cc1`, the MDR1-MDCK efflux ratio amounted to 0.59; the intrinsic clearance, human liver microsomes amounted to 10.5 mL/min/kg; the intrinsic clearance, rat liver microsomes was determined as 65.8 mL/min/kg; the aqueous solubility stood at 20.5 µg/mL (≈ 87 µM).

Take `Cn1cc(NC(=O)c2ccccc2C(F)(F)F)cn1`: the MDR1-MDCK efflux ratio came to 0.828; the intrinsic clearance, human liver microsomes was at most 4.74 mL/min/kg; the intrinsic clearance, rat liver microsomes is at most 10.7 mL/min/kg; the aqueous solubility stood at 37.7 µg/mL (≈ 140 µM).

Take `Fc1ccc(Nc2nc(N3CCCCC3)c3nccnc3n2)cc1`: the MDR1-MDCK efflux ratio came out at 0.305 and the aqueous solubility came out at 0.12 µg/mL (≈ 0.37 µM).

Molecule `COc1cc2nc(-c3ccc(N4CCN(C)CC4)cc3)nc(NCCN3CCOCC3)c2cc1OC` had an intrinsic clearance, human liver microsomes of 8.7 mL/min/kg and an intrinsic clearance, rat liver microsomes of 90.9 mL/min/kg.

In turn, `O=C(Nc1nc2ccccc2[nH]1)C1CCCO1` (centres undefined) displayed an aqueous solubility of 35.5 µg/mL (≈ 154 µM).

`Cc1ccc(F)cc1C(=O)N1CCc2c(nc(-c3ccccn3)nc2N(C)C)C1`: the intrinsic clearance, human liver microsomes was 8.74 mL/min/kg; the intrinsic clearance, rat liver microsomes was 61.6 mL/min/kg; the aqueous solubility worked out at 25.7 µg/mL (≈ 65.8 µM).

For the molecule `COc1cc(F)ccc1-c1ncccc1NC(=O)C(C)C`, the MDR1-MDCK efflux ratio stood at 3.33; the intrinsic clearance, human liver microsomes was at most 4.74 mL/min/kg; the intrinsic clearance, rat liver microsomes came to 25.7 mL/min/kg; the aqueous solubility came to 34.6 µg/mL (≈ 120 µM).

Regarding `O=C(NC1CCCCC1)C1CCN(c2ccncc2Cl)CC1`, the MDR1-MDCK efflux ratio is 0.838; the intrinsic clearance, human liver microsomes worked out at 22.4 mL/min/kg; the intrinsic clearance, rat liver microsomes came to 257 mL/min/kg; the aqueous solubility amounted to 22 µg/mL (≈ 68.4 µM).

For `Cc1ccccc1Cn1c(=O)c2c(nc3n(-c4ccccc4O)c(C)cn23)n(C)c1=O`, the MDR1-MDCK efflux ratio worked out at 21.8 and the aqueous solubility is 0.91 µg/mL (≈ 2.19 µM).

With `O=C(NCCc1cnn[nH]1)C1Cc2ccccc2C1`, the MDR1-MDCK efflux ratio amounted to 2.47; the intrinsic clearance, human liver microsomes is at most 4.74 mL/min/kg; the intrinsic clearance, rat liver microsomes was at most 10.7 mL/min/kg.

As for `COc1ccc(C(=O)N2CCCC2)cc1NC(C)C`, the MDR1-MDCK efflux ratio amounted to 1.08; the intrinsic clearance, human liver microsomes was 7.82 mL/min/kg; the intrinsic clearance, rat liver microsomes was 86.8 mL/min/kg; the aqueous solubility amounted to 35.9 µg/mL (≈ 137 µM).

Consider `Nc1nncc(-c2ccccc2OC(F)F)n1`, for which the MDR1-MDCK efflux ratio came to 0.709; the intrinsic clearance, human liver microsomes is at most 4.74 mL/min/kg; the intrinsic clearance, rat liver microsomes was at most 10.7 mL/min/kg; the aqueous solubility is 38.9 µg/mL (≈ 163 µM).

As to `CC1(c2nnc(-c3cc(-c4ccccc4)n[nH]3)o2)CCOCC1`, the MDR1-MDCK efflux ratio worked out at 1.21; the intrinsic clearance, human liver microsomes was 13.5 mL/min/kg; the intrinsic clearance, rat liver microsomes worked out at 179 mL/min/kg; the aqueous solubility was found to be 18.4 µg/mL (≈ 59.1 µM).

As to `CNC(=O)Cn1ccc2cc(OC)ccc21`, the MDR1-MDCK efflux ratio was 0.664; the intrinsic clearance, human liver microsomes was at most 4.74 mL/min/kg; the intrinsic clearance, rat liver microsomes amounted to 99.9 mL/min/kg; the aqueous solubility came to 39.9 µg/mL (≈ 183 µM).

`CN(C)C(=O)C1(Cc2ccccc2-c2ccccc2)CCN(C(=O)C2CCCO2)CC1` (centres undefined): the MDR1-MDCK efflux ratio stood at 17.3; the fraction unbound, human plasma is 0.0799; the fraction unbound, rat plasma stood at 0.184; the intrinsic clearance, human liver microsomes turned out to be 395 mL/min/kg. The molecule also returned an intrinsic clearance, rat liver microsomes of 2390 mL/min/kg and an aqueous solubility of 84.1 µg/mL (≈ 200 µM).

Turning to `CCCc1nnc2sc(-c3cc(C(C)C)nn3C)nn12`, the intrinsic clearance, human liver microsomes was found to be 31.3 mL/min/kg; the intrinsic clearance, rat liver microsomes turned out to be 593 mL/min/kg; the aqueous solubility is 17.9 µg/mL (≈ 61.5 µM).

Take `CC(=O)Nc1ccccc1CN1CCC(c2nnc3ccccn23)CC1`: the MDR1-MDCK efflux ratio came to 49.3; the intrinsic clearance, human liver microsomes worked out at 10 mL/min/kg; the intrinsic clearance, rat liver microsomes was 114 mL/min/kg.

On to `COc1cc(CNc2nc3ccccc3nc2C)ccn1`, for which the MDR1-MDCK efflux ratio is 0.664; the intrinsic clearance, human liver microsomes turned out to be 11 mL/min/kg; the intrinsic clearance, rat liver microsomes worked out at 124 mL/min/kg; the aqueous solubility came to 26.8 µg/mL (≈ 95.7 µM).

For the molecule `COCc1ncc(CN2CCC(Oc3cccc(C)c3)CC2)cn1`, the intrinsic clearance, human liver microsomes amounted to 10.2 mL/min/kg and the intrinsic clearance, rat liver microsomes was 131 mL/min/kg.

For the molecule `CCN1CCC(N(C)c2ncnc3c2cnn3C)CC1`, the MDR1-MDCK efflux ratio was found to be 1.01; the intrinsic clearance, human liver microsomes is 152 mL/min/kg; the intrinsic clearance, rat liver microsomes stood at 37 mL/min/kg; the aqueous solubility is 41.2 µg/mL (≈ 150 µM).

For the molecule `O=C(c1cc(-c2ccc(F)cc2)on1)N1CC[C@H](Oc2ccccc2F)[C@@H](O)CC1`, the MDR1-MDCK efflux ratio stood at 0.861; the intrinsic clearance, human liver microsomes worked out at 48.5 mL/min/kg; the intrinsic clearance, rat liver microsomes was 600 mL/min/kg.

For `CC1(C)CCCN1C(=O)c1c(F)cc(C#N)cc1F`, the MDR1-MDCK efflux ratio is 0.663; the intrinsic clearance, human liver microsomes is at most 4.74 mL/min/kg; the intrinsic clearance, rat liver microsomes was 69.7 mL/min/kg.

Regarding `O=C1CN(C(=O)c2ccc(F)cc2)CCN1`, the MDR1-MDCK efflux ratio is 2.27; the intrinsic clearance, human liver microsomes is at most 4.74 mL/min/kg; the intrinsic clearance, rat liver microsomes was at most 10.7 mL/min/kg; the aqueous solubility was determined as 47 µg/mL (≈ 212 µM).

In the case of `CNc1ncc(-c2nc(C3(c4ccccc4)CC3)nn2C(C)(C)C)cn1`, the MDR1-MDCK efflux ratio turned out to be 0.995; the intrinsic clearance, human liver microsomes was found to be 61.5 mL/min/kg; the intrinsic clearance, rat liver microsomes was found to be 878 mL/min/kg; the aqueous solubility came to 3.82 µg/mL (≈ 11 µM).

Turning to `Cc1nccc(C2CCN(Cc3ncc[nH]3)CC2)n1`, the MDR1-MDCK efflux ratio came out at 25.7; the intrinsic clearance, human liver microsomes was at most 4.74 mL/min/kg; the intrinsic clearance, rat liver microsomes was found to be 28.9 mL/min/kg; the aqueous solubility came to 80.4 µg/mL (≈ 313 µM).

Consider `O=C(NCc1ccc(F)cc1)c1ccc(-n2ccnc2)nc1`, for which the MDR1-MDCK efflux ratio was 1.04; the intrinsic clearance, human liver microsomes was at most 4.74 mL/min/kg; the intrinsic clearance, rat liver microsomes turned out to be 30 mL/min/kg; the aqueous solubility turned out to be 70.8 µg/mL (≈ 239 µM).

Turning to `O=C(Nc1ccc2ccccc2n1)c1ccc(N2CCOC2=O)cc1`, the MDR1-MDCK efflux ratio is 0.594; the fraction unbound, human plasma came to 0.0281; the fraction unbound, rat plasma is 0.0117; the intrinsic clearance, human liver microsomes was 5.17 mL/min/kg. The molecule further showed an intrinsic clearance, rat liver microsomes of 45.6 mL/min/kg and an aqueous solubility of 2.85 µg/mL (≈ 8.55 µM).

On to `Cc1nc(Cn2ncc3ccccc3c2=O)cs1`, for which the MDR1-MDCK efflux ratio was 0.681; the intrinsic clearance, human liver microsomes was at most 4.74 mL/min/kg; the intrinsic clearance, rat liver microsomes came out at 103 mL/min/kg; the aqueous solubility was 45.1 µg/mL (≈ 175 µM).

For `Cc1n[nH]c(C)c1Cc1ccc(NCCC(C)C)cc1`, the MDR1-MDCK efflux ratio stood at 0.61; the intrinsic clearance, human liver microsomes was at most 4.74 mL/min/kg; the intrinsic clearance, rat liver microsomes came to 484 mL/min/kg; the aqueous solubility was found to be 14.7 µg/mL (≈ 54.2 µM).

For the molecule `O=c1c2ccccc2cnn1Cc1cccc(OCC(F)(F)F)c1`, the MDR1-MDCK efflux ratio came out at 35.9; the intrinsic clearance, human liver microsomes was at most 4.74 mL/min/kg; the intrinsic clearance, rat liver microsomes was 51.3 mL/min/kg.

In turn, `CCc1noc(-c2ccc(C)c(N)c2)n1` returned an intrinsic clearance, human liver microsomes of 209 mL/min/kg and an intrinsic clearance, rat liver microsomes of 196 mL/min/kg.

With `CC(=O)N1CCN([C@H]2CCN(C(=O)c3cc4cc(Cl)ccc4o3)CC[C@@H]2O)CC1`, the MDR1-MDCK efflux ratio came to 37.8; the intrinsic clearance, human liver microsomes amounted to 8.04 mL/min/kg; the intrinsic clearance, rat liver microsomes worked out at 96.9 mL/min/kg.

`CCc1cc2c(Nc3cnn(CC)c3)ncnc2s1` came in with an intrinsic clearance, human liver microsomes of 40.7 mL/min/kg; an intrinsic clearance, rat liver microsomes of 102 mL/min/kg; an aqueous solubility of 43 µg/mL (≈ 157 µM).

As for `C[C@@H]1CC(=O)Nc2cccc(-c3ccc4c(c3)c(-c3cnn(C)c3)nn4C)c2N1`, the MDR1-MDCK efflux ratio was found to be 57.3; the intrinsic clearance, human liver microsomes was 8.83 mL/min/kg; the intrinsic clearance, rat liver microsomes was 46.5 mL/min/kg.

Regarding `Cc1ccc(C2(O)CCN(Cc3cn(C)c4ccc(F)cc34)CC2)cc1`, the MDR1-MDCK efflux ratio came out at 0.869; the intrinsic clearance, human liver microsomes came to 65.2 mL/min/kg; the intrinsic clearance, rat liver microsomes was 1790 mL/min/kg; the aqueous solubility was 49.7 µg/mL (≈ 141 µM).

Consider `N#Cc1ccc(Cn2cncn2)c(F)c1`, for which the MDR1-MDCK efflux ratio was 0.697; the intrinsic clearance, human liver microsomes was at most 4.74 mL/min/kg; the intrinsic clearance, rat liver microsomes was at most 10.7 mL/min/kg; the aqueous solubility is 26.5 µg/mL (≈ 131 µM).

On to `CCCc1ncncc1C(=O)NCc1nncn1CCC`, for which the MDR1-MDCK efflux ratio stood at 14.7; the intrinsic clearance, human liver microsomes is at most 4.74 mL/min/kg; the intrinsic clearance, rat liver microsomes worked out at 38.8 mL/min/kg.

Consider `Cc1nc2n(c1CN1CCN(c3ncccn3)CC1)CCCC2`, for which the MDR1-MDCK efflux ratio came out at 7.45; the intrinsic clearance, human liver microsomes was 29.1 mL/min/kg; the intrinsic clearance, rat liver microsomes was determined as 1180 mL/min/kg.

Take `Cn1c(C(=O)N2CCN(CCc3ccccc3)C(=O)C2)cc(=O)n(C)c1=O`: the MDR1-MDCK efflux ratio stood at 8.33; the intrinsic clearance, human liver microsomes is at most 4.74 mL/min/kg; the intrinsic clearance, rat liver microsomes came to 31.7 mL/min/kg; the aqueous solubility worked out at 59.7 µg/mL (≈ 161 µM).
